Here are results for 24 compounds from patent publication US9133206B2, “Benzodiazepine and pyridodiazepine derivatives” (AbbVie Inc., priority 2010, dated 2015).

For this test, the system named is SK-N-SH human neuroblastoma cells. Put plainly: Serum Deprivation/JC-1 Mitochondrial Membrane Potential (MMP) Assay. It counts as cell-based. The settings on record: Homo sapiens; for activation at 3 µM: single dose 3 μM, JC-1 ratio normalized to peak value for 10 μM dimebolin (n=2-4), read-out: JC-1 max % (@ 3 μM); for activation at 3 µM / Emax: serum deprivation; for EC50 / Emax: SK-N-SH; for EC50: 18 h, serum deprivation ~18 hours, JC-1 ratio normalized to peak value for 10 μM dimebolin, single curve fit to mean data of n=2-3; for Emax: percent maximal intensity in JC-1 ratio normalized to peak value for 10 μM dimebolin, read-out: JC-1 max %. The method in brief:
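SK-N-SH cells serum-deprived ~18 h with compound, then stained with JC-1 for 40 min at 37 °C; red (560/595 nm) to green (485/535 nm) ratio reports membrane potential. Response normalized to peak from 10 μM dimebolin; EC50 from fit to mean of n=2–3, or single-dose 3 μM; DMSO ≤1%.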

For the compound `O=C(Cc1cccnc1)N1Cc2ccccc2N2CCN(Cc3ccccc3)CC2C1` (stereo not drawn) [Example 98, 1-(3-benzyl-1,2,3,4,4a,5-hexahydropyrazino[1,2-a][1,4]benzodiazepin-6(7H)-yl)-2-(pyridin-3-yl)ethanone], the activation at 3 µM was 107%.

`O=C(NCC(=O)N1Cc2ccccc2N2CCN(Cc3ccccc3)CC2C1)c1ccco1` (stereo not drawn) [Example 99, N-[2-(3-benzyl-1,2,3,4,4a,5-hexahydropyrazino[1,2-a][1,4]benzodiazepin-6(7H)-yl)-2-oxoethyl]-2-furamide]: the EC50 turned out to be 3.15 µM and the Emax amounted to 165%.

Take `CC(C)C(=O)N1Cc2ccccc2N2CCN(Cc3ccccc3)CC2C1` (stereo not drawn) [Example 100, 1-(3-benzyl-1,2,3,4,4a,5-hexahydropyrazino[1,2-a][1,4]benzodiazepin-6(7H)-yl)-2-methylpropan-1-one]: the activation at 3 µM was found to be 118%.

Consider `Cc1noc(C)c1C(=O)N1Cc2ccccc2N2CCN(Cc3ccccc3)CC2C1` (stereo not drawn) [Example 101, (3-benzyl-1,2,3,4,4a,5-hexahydropyrazino[1,2-a][1,4]benzodiazepin-6(7H)-yl)(3,5-dimethyl-1,2-oxazol-4-yl)methanone], for which the activation at 3 µM is 149%.

For the compound `Cc1cnc(C(=O)N2Cc3ccccc3N3CCN(Cc4ccccc4)CC3C2)cn1` (stereo not drawn) [Example 102, (3-benzyl-1,2,3,4,4a,5-hexahydropyrazino[1,2-a][1,4]benzodiazepin-6(7H)-yl)(5-methylpyrazin-2-yl)methanone], the activation at 3 µM worked out at 110%.

`CN1CCN(CC(=O)N2Cc3ccccc3N3CCN(Cc4ccccc4)CC3C2)CC1` (stereo not drawn) [Example 103, 1-(3-benzyl-1,2,3,4,4a,5-hexahydropyrazino[1,2-a][1,4]benzodiazepin-6(7H)-yl)-2-(4-methylpiperazin-1-yl)ethanone]: the activation at 3 µM turned out to be 42%.

Consider `O=C(c1ccco1)N1Cc2ccccc2N2CCN(Cc3ccccc3)CC2C1` (stereo not drawn) [Example 104, (3-benzyl-1,2,3,4,4a,5-hexahydropyrazino[1,2-a][1,4]benzodiazepin-6(7H)-yl)(2-furyl)methanone], for which the activation at 3 µM was determined as 178%.

Consider `Cn1cccc1C(=O)N1Cc2ccccc2N2CCN(Cc3ccccc3)CC2C1` (stereo not drawn) [Example 105, (3-benzyl-1,2,3,4,4a,5-hexahydropyrazino[1,2-a][1,4]benzodiazepin-6(7H)-yl)(1-methyl-1H-pyrrol-2-yl)methanone], for which the EC50 is 2.52 µM and the Emax was 197%.

As to `CCC(=O)N1Cc2ccccc2N2CCN(Cc3ccccc3)CC2C1` (stereo not drawn) [Example 106, 1-(3-benzyl-1,2,3,4,4a,5-hexahydropyrazino[1,2-a][1,4]benzodiazepin-6(7H)-yl)propan-1-one], the activation at 3 µM was found to be 81%.

Consider `O=C(c1ccncc1)N1Cc2ccccc2N2CCN(Cc3ccccc3)CC2C1` (stereo not drawn) [Example 107, (3-benzyl-1,2,3,4,4a,5-hexahydropyrazino[1,2-a][1,4]benzodiazepin-6(7H)-yl)(pyridin-4-yl)methanone], for which the EC50 is 5.66 µM and the Emax stood at 192%.

On to `CCCC(=O)N1Cc2ccccc2N2CCN(Cc3ccccc3)CC2C1` (stereo not drawn) [Example 108, 1-(3-benzyl-1,2,3,4,4a,5-hexahydropyrazino[1,2-a][1,4]benzodiazepin-6(7H)-yl)butan-1-one], for which the EC50 came out at 3.12 µM and the Emax is 162%.

Regarding `O=C(C1CCOC1)N1Cc2ccccc2N2CCN(Cc3ccccc3)CC2C1` (stereo not drawn) [Example 109, (3-benzyl-1,2,3,4,4a,5-hexahydropyrazino[1,2-a][1,4]benzodiazepin-6(7H)-yl)(tetrahydrofuran-3-yl)methanone], the activation at 3 µM worked out at 65%.

Consider `O=C(c1cccnc1)N1Cc2ccccc2N2CCN(Cc3ccccc3)CC2C1` (stereo not drawn) [Example 110, (3-benzyl-1,2,3,4,4a,5-hexahydropyrazino[1,2-a][1,4]benzodiazepin-6(7H)-yl)(pyridin-3-yl)methanone], for which the activation at 3 µM worked out at 97%.

As to `O=C(CCN1CCCCC1)N1Cc2ccccc2N2CCN(Cc3ccccc3)CC2C1` (stereo not drawn) [Example 111, 1-(3-benzyl-1,2,3,4,4a,5-hexahydropyrazino[1,2-a][1,4]benzodiazepin-6(7H)-yl)-3-(piperidin-1-yl)propan-1-one], the activation at 3 µM amounted to 162%.

`O=C(C1CC1)N1Cc2ccccc2N2CCN(Cc3ccccc3)CC2C1` (stereo not drawn) [Example 112, (3-benzyl-1,2,3,4,4a,5-hexahydropyrazino[1,2-a][1,4]benzodiazepin-6(7H)-yl)(cyclopropyl)methanone]: the EC50 was 4.67 µM and the Emax amounted to 139%.

With `CCOCC(=O)N1Cc2ccccc2N2CCN(Cc3ccccc3)CC2C1` (stereo not drawn) [Example 113, 1-(3-benzyl-1,2,3,4,4a,5-hexahydropyrazino[1,2-a][1,4]benzodiazepin-6(7H)-yl)-2-ethoxyethanone], the activation at 3 µM turned out to be 51%.

Consider `CC1(C(=O)N2Cc3ccccc3N3CCN(Cc4ccccc4)CC3C2)CC1` (stereo not drawn) [Example 114, (3-benzyl-1,2,3,4,4a,5-hexahydropyrazino[1,2-a][1,4]benzodiazepin-6(7H)-yl)(1-methylcyclopropyl)methanone], for which the EC50 came to 4.36 µM and the Emax was found to be 201%.

As for `O=C(C1CCC1)N1Cc2ccccc2N2CCN(Cc3ccccc3)CC2C1` (stereo not drawn) [Example 115, (3-benzyl-1,2,3,4,4a,5-hexahydropyrazino[1,2-a][1,4]benzodiazepin-6(7H)-yl)(cyclobutyl)methanone], the EC50 stood at 1.25 µM and the Emax turned out to be 177%.

In the case of `CC1CC1C(=O)N1Cc2ccccc2N2CCN(Cc3ccccc3)CC2C1` (stereo not drawn) [Example 116, (3-benzyl-1,2,3,4,4a,5-hexahydropyrazino[1,2-a][1,4]benzodiazepin-6(7H)-yl)(2-methylcyclopropyl)methanone], the activation at 3 µM was found to be 198%.

Turning to `O=C(CC(F)(F)F)N1Cc2ccccc2N2CCN(Cc3ccccc3)CC2C1` (stereo not drawn) [Example 117, 1-(3-benzyl-1,2,3,4,4a,5-hexahydropyrazino[1,2-a][1,4]benzodiazepin-6(7H)-yl)-3,3,3-trifluoropropan-1-one], the activation at 3 µM turned out to be 70%.

Turning to `O=C(C1CCCO1)N1Cc2ccccc2N2CCN(Cc3ccccc3)CC2C1` (stereo not drawn) [Example 118, (3-benzyl-1,2,3,4,4a,5-hexahydropyrazino[1,2-a][1,4]benzodiazepin-6(7H)-yl)(tetrahydrofuran-2-yl)methanone], the activation at 3 µM was found to be 84%.

Turning to `COc1ccc(CN2Cc3ccccc3N3CCN(Cc4ccccc4)CC3C2)cc1C` (stereo not drawn) [Example 119, 3-benzyl-6-(4-methoxy-3-methylbenzyl)-1,2,3,4,4a,5,6,7-octahydropyrazino[1,2-a][1,4]benzodiazepine], the concentration for a half-maximal effect (EC50) worked out at 3.95 µM and the Emax was 172%.

Regarding `Cc1cc(CN2Cc3ccccc3N3CCN(Cc4ccccc4)CC3C2)oc1C` (stereo not drawn) [Example 120, 3-benzyl-6-[(4,5-dimethyl-2-furyl)methyl]-1,2,3,4,4a,5,6,7-octahydropyrazino[1,2-a][1,4]benzodiazepine], the activation at 3 µM is -5%.

In the case of `CCOc1ccc(CN2Cc3ccccc3N3CCN(Cc4ccccc4)CC3C2)cc1` (stereo not drawn) [Example 121, 3-benzyl-6-(4-ethoxybenzyl)-1,2,3,4,4a,5,6,7-octahydropyrazino[1,2-a][1,4]benzodiazepine], the EC50 stood at 4.21 µM and the Emax worked out at 167%.
